Experimental data taken from article PMC6165285, “α-Glucosidase Inhibitors: Diphenyl Ethers and Phenolic Bisabolane Sesquiterpenoids from the Mangrove Endophytic Fungus Aspergillus flavus QQSG-3” (Marine Drugs, 2018).
Entries after “also recorded” stand apart in the source; their conditions may differ.

Biological target: α-glucosidase (Saccharomyces cerevisiae, UniProt P53341)
Experiment: α-Glucosidase inhibitory activity (p-nitrophenyl-α-glucopyranoside substrate, absorbance at 405 nm)
Assay type: biochemical
Conditions: compared to the positive control acarbose
Description: α-Glucosidase was assayed according to standard procedures. […] Ten microliters of testing materials (in triplicate) were incubated for 10 min with 20 μL of enzyme stock solution and 60 μL of PBS. After incubation, 10 μL of substrate was added and incubated for 20 min at 37 °C. Absorbance at 405 nm was then determined.
The inhibitory activity of the isolates was determined as a percentage in comparison to a blank (DMSO) according to the following equation: %αGHY=(1−A405t/A405c)×100% where %αGHY is the percentage of inhibition, A405t is the corrected absorbance of the compound under testing (A405end − A405initial), and A405c is the absorbance of the blank (A405endblank − A405initialblank). The IC50 values of compounds were calculated by the nonlinear regression analysis.

α-glucosidase, sequence (P53341 whole entry): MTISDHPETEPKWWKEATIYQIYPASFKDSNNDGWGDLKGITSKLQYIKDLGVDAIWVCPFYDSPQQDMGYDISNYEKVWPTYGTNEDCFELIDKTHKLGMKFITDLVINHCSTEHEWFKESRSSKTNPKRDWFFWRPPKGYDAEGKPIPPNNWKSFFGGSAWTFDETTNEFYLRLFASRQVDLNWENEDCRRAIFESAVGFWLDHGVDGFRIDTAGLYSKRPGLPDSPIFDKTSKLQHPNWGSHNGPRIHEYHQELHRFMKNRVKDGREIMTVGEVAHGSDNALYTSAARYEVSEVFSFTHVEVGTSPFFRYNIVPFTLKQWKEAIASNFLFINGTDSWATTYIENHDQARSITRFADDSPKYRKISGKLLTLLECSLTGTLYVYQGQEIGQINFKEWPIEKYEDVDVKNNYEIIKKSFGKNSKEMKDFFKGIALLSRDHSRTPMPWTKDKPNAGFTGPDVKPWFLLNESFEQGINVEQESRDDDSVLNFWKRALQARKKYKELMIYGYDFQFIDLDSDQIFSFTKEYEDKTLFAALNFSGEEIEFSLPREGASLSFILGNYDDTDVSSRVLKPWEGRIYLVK

Row | Structure (SMILES) | α-glucosidase inhibitory activity, result in words
1 | Cc1cc(O)cc(Oc2cc(C)c(O)c(O)c2)c1 [Compound 1] | better than that of acarbose
2 | Cc1cc(O)cc(Oc2cc(C)c(C(=O)OCC(O)C(O)CO)c(O)c2)c1 (stereo not drawn) [Compound 2] | better than that of acarbose
3 | C/C(=C\CCC(C)C)c1ccc(Cc2cc(C)cc(O)c2O)cc1O [Compound 3] | strong inhibitory activity; also recorded: strong inhibitory effects
4 | CC(C)CCCC(C)(O)c1ccc(COCc2ccc(C(C)(O)CCCC(C)C)c(O)c2)cc1O (stereo not drawn) [Compound 5] | strong inhibitory activity; also recorded: strong inhibitory effects
5 | Cc1cc(O)cc(Oc2cc(C)cc(OCc3ccc([C@@](C)(O)CCCC(C)C)c(O)c3)c2)c1 [Compound 10, peniciaculin A] | strong inhibitory activity; also recorded: strong inhibitory effects
6 | C/C(=C\CCC(C)C)c1ccc(Cc2c(C)cc(Oc3cc(C)cc(O)c3)cc2O)cc1O [Compound 11, expansol D] | strong inhibitory activity; also recorded: strong inhibitory effects
